According to article PMC7041945, “Misfolded proteins bind and activate death receptor 5 to trigger apoptosis during unresolved endoplasmic reticulum stress” (eLife, 2020):

Columns and labels:
[1] = system: XBP1 mRNA in HCT116 cells; experiment: RT-PCR for Xbp1 mRNA splicing; format: cell-based, Homo sapiens; details: HCT116, 24 hr
Description: Cells were grown in 6-well plates and harvested with 0.5 ml of TRIzol reagent (Life Technologies) per manufacturer's protocol to extract RNA. […] The reverse transcription product was diluted to 200 μl with 10 mM Tris-HCl pH 8.2 and used at 1:100 dilution for subsequent RT-PCR reactions. 2 μl of cDNA was added to 0.2 μM of forward and reverse primers ([…]; Hs_XBP1_Rev: [NT]), 0.2 mM of each dNTP, 0.5 units of Taq DNA polymerase (Thermo Scientific). The reaction was set at an annealing temperature of 60.5°C with an extension time of 30 s for 26 cycles.

[2] = system: DR5 / ERGIC53 / giantin in HCT116 cells; experiment: Immunofluorescence co-localization (Pearson's correlation per cell); format: cell-based, Homo sapiens; details: versus 90° rotated images; 24 hr
How it was run: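 HCT116 cells on collagen IV-coated glass fixed 24 hr post-transfection in 4% PFA or cold methanol, then immunostained with DAPI counterstain and imaged by spinning-disk confocal (40x or 100x). Pearson's correlation was computed per cell within the MPZ/RHO-GFP mask (DR5 vs GFP) or within organelle-marker cytoplasmic masks in GFP+ cells.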

GAPDH = experiment: qPCR of GAPDH (reference transcript); format: cell-based; details: Rep 2; for avg. fold induction GAPDH / fold induction GAPDH: vs 24 hr cytoGFP (empty traffo)

RHO-GFP: GFP-tagged rhodopsin expressed from plasmid
XBP1 mRNA splicing [1]: induced XBP1 mRNA splicing
overlap (mean Pearson's correlation) with DR5 signal [2]: statistically significant overlap with DR5 signal
Cq GAPDH (GAPDH; 3 hr, mean of 3 replicates): 19.7379
2^-(deltaCq) GAPDH (GAPDH; 3 hr, replicate 1): 0.8551
Cq GAPDH (GAPDH; 3 hr, replicate 1): 19.9638
Cq(sample) - avg Cq(GAPDH), GAPDH (GAPDH; 3 hr, replicate 1): 0.2259
2^-(deltaCq) GAPDH (GAPDH; 3 hr, replicate 2): 1.128
Cq GAPDH (GAPDH; 3 hr, replicate 2): 19.5639
Cq(sample) - avg Cq(GAPDH), GAPDH (GAPDH; 3 hr, replicate 2): -0.174
2^-(deltaCq) GAPDH (GAPDH; 3 hr, replicate 3): 1.0366
Cq GAPDH (GAPDH; 3 hr, replicate 3): 19.686
Cq(sample) - avg Cq(GAPDH), GAPDH (GAPDH; 3 hr, replicate 3): -0.05187
avg. fold induction GAPDH (GAPDH; 3 hr, mean of 3 replicates): 1.004
fold induction GAPDH (GAPDH; 3 hr, replicate 1): 0.8525
fold induction GAPDH (GAPDH; 3 hr, replicate 2): 1.125
fold induction GAPDH (GAPDH; 3 hr, replicate 3): 1.034
Cq GAPDH (GAPDH; 7 hr, mean of 3 replicates): 19.658
2^-(deltaCq) GAPDH (GAPDH; 7 hr, replicate 1): 0.7732
Cq GAPDH (GAPDH; 7 hr, replicate 1): 20.029
Cq(sample) - avg Cq(GAPDH), GAPDH (GAPDH; 7 hr, replicate 1): 0.371
2^-(deltaCq) GAPDH (GAPDH; 7 hr, replicate 2): 1.046
Cq GAPDH (GAPDH; 7 hr, replicate 2): 19.5931
Cq(sample) - avg Cq(GAPDH), GAPDH (GAPDH; 7 hr, replicate 2): -0.06483
2^-(deltaCq) GAPDH (GAPDH; 7 hr, replicate 3): 1.236
Cq GAPDH (GAPDH; 7 hr, replicate 3): 19.3518
Cq(sample) - avg Cq(GAPDH), GAPDH (GAPDH; 7 hr, replicate 3): -0.3062
avg. fold induction GAPDH (GAPDH; 7 hr, mean of 3 replicates): 1.016
fold induction GAPDH (GAPDH; 7 hr, replicate 1): 0.7709
fold induction GAPDH (GAPDH; 7 hr, replicate 2): 1.043
fold induction GAPDH (GAPDH; 7 hr, replicate 3): 1.233
Cq GAPDH (GAPDH; 24 hr, mean of 3 replicates): 19.018
2^-(deltaCq) GAPDH (GAPDH; 24 hr, replicate 1): 0.8063
Cq GAPDH (GAPDH; 24 hr, replicate 1): 19.3286
Cq(sample) - avg Cq(GAPDH), GAPDH (GAPDH; 24 hr, replicate 1): 0.3107
2^-(deltaCq) GAPDH (GAPDH; 24 hr, replicate 2): 1.066
Cq GAPDH (GAPDH; 24 hr, replicate 2): 18.9252
Cq(sample) - avg Cq(GAPDH), GAPDH (GAPDH; 24 hr, replicate 2): -0.09277
2^-(deltaCq) GAPDH (GAPDH; 24 hr, replicate 3): 1.163
Cq GAPDH (GAPDH; 24 hr, replicate 3): 18.8001
Cq(sample) - avg Cq(GAPDH), GAPDH (GAPDH; 24 hr, replicate 3): -0.2179
avg. fold induction GAPDH (GAPDH; 24 hr, mean of 3 replicates): 1.009
fold induction GAPDH (GAPDH; 24 hr, replicate 1): 0.8039
fold induction GAPDH (GAPDH; 24 hr, replicate 2): 1.063
fold induction GAPDH (GAPDH; 24 hr, replicate 3): 1.16
